Source: patent US20240190872A1, “FABI INHIBITORS FOR GRAM-NEGATIVE PATHOGENS” (THE BOARD OF TRUSTEES OF THE UNIVERSITY OF ILLINOIS, priority 2021, published 2024)
Values after ≈ are worked out from the molar mass of the structure shown. Read-outs that look alike come from different tables or passages of the source.

How the values were obtained:
[1] = system: E. coli ΔtolC (JW5503); assay type: cell-based; settings: efflux deficient E. coli ΔtolC
Method in brief: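 MICs by CLSI broth microdilution in cation-adjusted Mueller-Hinton broth, performed in biological triplicate. Strains: efflux-deficient E. coli ΔtolC (JW5503, KEIO collection) and K. pneumoniae BAA-2472 (ATCC).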

[2] = in vitro; settings: mouse, plasma, Plasma stability, t1/2, Mouse
[3] = biological target: CYP 3A4 (Homo sapiens (Human), UniProt P08684); experiment: biochemical
CYP 3A4, sequence (P08684 whole entry): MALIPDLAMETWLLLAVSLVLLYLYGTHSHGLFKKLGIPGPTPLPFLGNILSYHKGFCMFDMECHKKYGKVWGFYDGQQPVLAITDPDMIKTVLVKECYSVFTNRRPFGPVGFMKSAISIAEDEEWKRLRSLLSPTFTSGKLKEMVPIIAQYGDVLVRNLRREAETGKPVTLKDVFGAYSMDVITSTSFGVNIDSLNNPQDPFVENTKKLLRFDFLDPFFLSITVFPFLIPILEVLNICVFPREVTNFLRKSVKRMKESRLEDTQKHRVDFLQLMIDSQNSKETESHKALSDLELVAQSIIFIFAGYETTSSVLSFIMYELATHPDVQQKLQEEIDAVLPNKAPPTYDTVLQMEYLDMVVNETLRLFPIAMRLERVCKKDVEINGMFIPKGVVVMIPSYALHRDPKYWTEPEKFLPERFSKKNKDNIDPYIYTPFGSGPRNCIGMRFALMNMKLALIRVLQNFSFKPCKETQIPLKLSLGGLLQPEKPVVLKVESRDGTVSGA

[4] = Plasma stability
[5] = system: E. coli MG1655 FabI mutant; experiment: MIC against fabimycin-resistant E. coli MG1655 colonies (FabI mutants); assay type: cell-based; settings: Escherichia coli
Experimental: Selection of resistant mutants. Resistant mutants were selected via the large inoculum method. Briefly, E. coli MG1655 (1.8×10^9 CFU) were plated on 100 mm plates of LB agar containing 64, 32, and 16 μg/mL Debio-1452-NH3. […] Resistant colonies were confirmed by streaking on selective media with the same concentration of Debio-1452-NH3.

[6] = in vitro; settings: human, plasma
[7] = system: S. aureus USA300 LAC; experiment: Neutropenic mouse thigh infection; assay type: in vivo, CD-1 mice; settings: 5 mg/kg, r.o.
Experimental: FIG. 7. […] A) Neutropenic mouse thigh infection model initiated in female BALB/c mice with A. baumannii AR-88 (1.36×10^5 CFU per mouse intramuscular, left thigh) were treated with vehicle (5 mice) or fabimycin (10 mice) four times a day (75 mg/kg intravenously) and bacterial burden evaluated at 26 h post-infection. B) Neutropenic mouse thigh infection initiated in CD-1 mice with S. aureus USA300 LAC (2.3×10^6 CFU per mouse intramuscular in thigh) were treated with vehicle (8 mice) or FabI inhibitor (8 mice per group) 2 and 7 h post-infection (5 mg/kg retro-orbital IV), […]
(§1) With formulation, MTD, and pharmacokinetic data in hand, the efficacy of fabimycin was evaluated in murine infection models. To start, a comparative assessment was made of fabimycin and Debio-1452-NH3 in two murine neutropenic infection models using a dosing regimen that is at the MTD for Debio-1452-NH3 but below the MTD for fabimycin (three doses, intramuscular, at 50 mg/kg).
(§2) Chart 1. Summary of Fabimycin in vivo models.

[8] = Hepatocyte stability; assay type: in vitro ADME
[9] = female, BALB/c, mouse, in vivo, 100 mg/kg
[10] = system: A. baumannii AR-299; experiment: Neutropenic mouse thigh infection; assay type: in vivo, CD-1 mice; settings: 50 mg/kg, intramuscular (2, 6, and 11 h post-infection), 26 h
Experimental: as §1, §2

[11] = biological target: CYP 2D6 (Homo sapiens (Human), UniProt P10635); experiment: biochemical
CYP 2D6, sequence (P10635 whole entry): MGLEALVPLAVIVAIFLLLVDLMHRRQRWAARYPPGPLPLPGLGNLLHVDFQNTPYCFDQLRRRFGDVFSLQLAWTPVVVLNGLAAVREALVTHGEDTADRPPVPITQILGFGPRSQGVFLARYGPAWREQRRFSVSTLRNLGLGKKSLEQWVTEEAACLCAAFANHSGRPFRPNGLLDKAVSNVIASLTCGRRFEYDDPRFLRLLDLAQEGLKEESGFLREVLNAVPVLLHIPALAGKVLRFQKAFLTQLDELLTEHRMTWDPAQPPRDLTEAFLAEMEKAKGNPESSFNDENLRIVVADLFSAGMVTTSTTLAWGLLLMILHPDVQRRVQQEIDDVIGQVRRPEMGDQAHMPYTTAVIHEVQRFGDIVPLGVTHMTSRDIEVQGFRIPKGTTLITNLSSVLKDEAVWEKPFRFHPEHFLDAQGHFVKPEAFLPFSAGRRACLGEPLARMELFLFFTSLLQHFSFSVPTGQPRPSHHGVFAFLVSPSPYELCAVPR

[12] = Hepatocyte stability; assay type: in vitro ADME; remark: listed apart in the source
[13] = system: A. baumannii AR-299; experiment: Acute pneumonia (lung) infection; assay type: in vivo, CD-1 mice; settings: 50 mg/kg, intramuscular (QD), 48 h
Experimental: as §1, §2

Cc1c(CN(C)C(=O)/C=C/c2cnc3c(c2)CC[C@H](N)C(=O)N3)oc2ccccc12 [(S)-11, (S,E)-3-(7-amino-8-oxo-6,7,8,9-tetrahydro-5H-pyrido[2,3-b]azepin-3-yl)-N-methyl-N-((3-methylbenzofuran-2-yl)methyl)acrylamide]
MIC E. coli ΔtolC [1]: 0.016 µg/mL (≈ 0.0396 µM)
half-life [2]: 1.38 h
Plasma stability, t1/2, Mouse: 1.38 h
IC50 [3]: 7 µM
stability in human plasma (in words) [4]: excellent stability
MIC ([5]; MG1655, read-out: MIC, FabI mutant G148A): 64 to 128 µg/mL (≈ 158 to 316 µM)
MIC ([5]; MG1655, read-out: MIC, FabI mutant H209P): 61 to 128 µg/mL (≈ 151 to 316 µM)
half-life [6]: 23.3 h
log reduction relative to the vehicle [7]: 2.6 log
Hepatocyte stability, Mouse [8]: 6.1 μL/min/million cells
time concentrations stayed above the MIC for the infectious strain [9]: over 7 hours
log reduction relative to the vehicle [10]: 2.3 log
IC50 [11]: 65 µM
Hepatocyte stability, Rat [12]: 0.9 μL/min/million cells
log reduction relative to the vehicle [13]: 3.9 log
